From patent US20220380347A1, “INHIBITORS OF CYSTEINE PROTEASES AND METHODS OF USE THEREOF” (Pardes Biosciences, Inc., priority 2020, published 2022) come the findings set out here.

One experiment has as its target 229E Mpro (Human coronavirus 229E, UniProt P0C6X1). The experiment is described as follows: 229E Mpro enzymatic assay (standard methods, SARS-CoV2 Mpro assay given as exemplary). Format: biochemical, human coronavirus (HCov) 229E. The conditions noted are these: 229E Mpro EC50. An outline of the steps:
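IC50 for 229E Mpro by standard methods; exemplary SARS-CoV-2 protocol used C-His6-tagged Mpro from E. coli, 25 nM enzyme, 25 μM substrate (Km 13.5 μM), in Tris-HCl pH 7.3, NaCl, EDTA, TCEP, 0.1% BSA. Inhibition normalised to no-compound and full-effect controls; four-parameter fit.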

Another experiment concerns HCov OC43. Put plainly: HCoV OC43 cytopathic effect (CPE) assay, CellTiter Glo. Type of experiment: cell-based, human coronavirus (HCov) OC43. To be noted: Betacoronavirus 1, OC43, read-out: OC43 IC50 (uM) MEDIAN, median. (Protection from cytopathic effect is a common read-out in antiviral testing.)
The target in experiment [1] is COVID-19 (nCoV-2019, SARS-CoV2) Mpro (Severe acute respiratory syndrome coronavirus 2, UniProt P0DTD1). The experiment is described as follows: COVID-19 (nCoV-2019, SARS-CoV2) Mpro enzymatic assay. Type of experiment: biochemical. The conditions noted are these: 25 nM Mpro, 25 μM substrate; read-out: COVID-19 Mpro IC50.

Some results are limits rather than exact numbers.

Sequence of 229E Mpro (P0C6X1 2966-3267): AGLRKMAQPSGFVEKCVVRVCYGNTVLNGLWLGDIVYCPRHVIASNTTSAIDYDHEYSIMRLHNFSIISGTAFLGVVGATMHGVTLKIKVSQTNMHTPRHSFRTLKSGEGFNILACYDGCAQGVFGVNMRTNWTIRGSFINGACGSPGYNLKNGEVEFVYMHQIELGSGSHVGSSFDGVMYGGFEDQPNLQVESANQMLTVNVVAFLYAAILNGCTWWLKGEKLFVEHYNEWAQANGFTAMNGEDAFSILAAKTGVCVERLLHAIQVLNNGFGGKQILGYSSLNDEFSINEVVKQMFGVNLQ

As usually defined, the EC50 is the concentration that produces a half-maximal response. As usually defined, the IC50 is the concentration at which inhibition is half-maximal. In the case of `CN(C(=O)C(c1cccnc1)N(C(=O)[C@H]1CCCN1C#N)c1ccc(C(C)(C)C)cc1)C1CCCCC1` (stereo partly drawn) [Compound 1228, (2R)—N-(4-(tert-butyl)phenyl)-1-cyano-N-(2-(cyclohexyl(methyl)amino)-2-oxo-1-(pyridin-3-yl)ethyl)pyrrolidine-2-carboxamide], at 229E Mpro, the EC50 was under 2 µM. The half-maximal inhibitory concentration (IC50) with HCov OC43 fell in the range of 10 to 30 µM; in experiment [1], 2 to 10 µM.

`CO[C@@H]1C[C@H](C(=O)N(c2ccc(S(F)(F)(F)(F)F)cc2)C(C(=O)N(CCO)C2CCC(F)(F)CC2)c2cccnc2)N(C(=O)OCc2ccccc2)C1` (stereo partly drawn) [Compound 1244, Benzyl (2R,4R)-2-[[2-[(4,4-difluorocyclohexyl)-(2-hydroxyethyl)amino]-2-oxo-1-(3-pyridyl)ethyl]-[4-(pentafluoro-λ^6-sulfanyl)phenyl]carbamoyl]-4-methoxy-pyrrolidine-1-carboxylate] came in with an EC50 on 229E Mpro of over 30 µM. For the same compound, the IC50 (in the experiment on HCov OC43; in experiment [1]) was over 30 µM in each case.

`N#CN1CC[C@H]2C[C@]21C(=O)N(c1ccc(S(F)(F)(F)(F)F)cc1)C(C(=O)NC1CCC(F)(F)CC1)c1cncc(F)c1` (stereo partly drawn) [Compound 1261, (1R,5S)-2-cyano-N-[2-[(4,4-difluorocyclohexyl)amino]-1-(5-fluoro-3-pyridyl)-2-oxo-ethyl]-N-[4-(pentafluoro-λ^6-sulfanyl)phenyl]-2-azabicyclo[3.1.0]hexane-1-carboxamide]: at 229E Mpro, the EC50 is 2 to 10 µM. The IC50 (in the experiment with HCov OC43; in experiment [1]) was over 30 µM throughout.

Compound `N#CN1CC[C@H]2C[C@]21C(=O)N(c1ccc(S(F)(F)(F)(F)F)cc1)C(C(=O)NC1CCC(F)(F)CC1)c1cnccc1C(F)(F)F` (stereo partly drawn) [Compound 1263, (1R,5S)-2-cyano-N-[2-[(4,4-difluorocyclohexyl)amino]-2-oxo-1-[4-(trifluoromethyl)-3-pyridyl]ethyl]-N-[4-(pentafluoro-λ^6-sulfanyl)phenyl]-2-azabicyclo[3.1.0]hexane-1-carboxamide] came in with an EC50 at 229E Mpro of 10 to 30 µM. In addition, the IC50 (in the experiment with HCov OC43; in experiment [1]) was over 30 µM each time.

`CO[C@@H]1C[C@H](C(=O)N(c2ccc(S(F)(F)(F)(F)F)cc2)C(C(=O)NCCN2CCN(C(=O)OC(C)(C)C)CC2)c2cccnc2)N(C#N)C1` (stereo partly drawn) [Compound 1267, tert-butyl4-[2-[[2-[N-[(2R,4R)-1-cyano-4-methoxy-pyrrolidine-2-carbonyl]-4-(pentafluoro-λ^6-sulfanyl)anilino]-2-(3-pyridyl)acetyl]amino]ethyl]piperazine-1-carboxylate] displayed an EC50 on 229E Mpro of under 2 µM. The IC50 with HCov OC43 is under 2 µM; in experiment [1], 2 to 10 µM.

`N#CN1CCC(F)(F)C1C(=O)N(c1ccc(S(F)(F)(F)(F)F)cc1)C(C(=O)NC1CCOCC1)c1cncc(F)c1` (stereo not drawn) [Compound 1274, 1-cyano-3,3-difluoro-N-[1-(5-fluoro-3-pyridyl)-2-oxo-2-(tetrahydropyran-4-ylamino)ethyl]-N-[4-(pentafluoro-λ^6-sulfanyl)phenyl]pyrrolidine-2-carboxamide] came in with an EC50 at 229E Mpro of under 2 µM. The IC50 (in the experiment with HCov OC43; in experiment [1]) was under 2 µM throughout.

In the case of `N#CC1(C(=O)N(c2ccc(S(F)(F)(F)(F)F)cc2)C(C(=O)NC2CCC(F)(F)CC2)c2cncc(F)c2)CC1` (stereo not drawn) [Compound 1289, 1-cyano-N-[2-[(4,4-difluorocyclohexyl)amino]-1-(5-fluoro-3-pyridyl)-2-oxo-ethyl]-N-[4-(pentafluoro-λ^6-sulfanyl)phenyl]cyclopropanecarboxamide], the EC50 at 229E Mpro is over 30 µM. Moreover, the IC50 (in the experiment with HCov OC43; in experiment [1]) was over 30 µM each time.

`[2H]C(C(=O)NC1CCOCC1)(c1cnccn1)N(C(=O)[C@H]1C[C@@](C)(O)CN1C#N)c1ccc(S(F)(F)(F)(F)F)cc1` (stereo partly drawn) [Compound 1305, (2R,4R)-1-cyano-N-[1-deuterio-2-oxo-1-pyrazin-2-yl-2-(tetrahydropyran-4-ylamino)ethyl]-4-hydroxy-4-methyl-N-[4-(pentafluoro-λ^6-sulfanyl)phenyl]pyrrolidine-2-carboxamide]: the EC50 on 229E Mpro is over 30 µM. Moreover, the half-inhibitory concentration (IC50) (in the experiment on HCov OC43; in experiment [1]) was over 30 µM throughout.

Consider `CO[C@@H]1C[C@H](C(=O)N(c2ccc(S(F)(F)(F)(F)F)cc2)C(C(=O)NC2CCC(F)(F)CC2)c2nncn2C(C)C)N(C#N)C1` (stereo partly drawn) [Compound 1307, (2R,4R)-1-cyano-N-[2-[(4,4-difluorocyclohexyl)amino]-1-(4-isopropyl-1,2,4-triazol-3-yl)-2-oxo-ethyl]-4-methoxy-N-[4-(pentafluoro-λ6-sulfanyl)phenyl]pyrrolidine-2-carboxamide], for which the EC50 at 229E Mpro is over 30 µM. For the same compound, the IC50 (with HCov OC43; in experiment [1]) was over 30 µM throughout.

The compound `CO[C@@H]1C[C@H](C(=O)N(c2ccc(S(F)(F)(F)(F)F)cc2)C(C(=O)NC2CCC(F)(F)CC2)c2cncs2)N(C#N)C1` (stereo partly drawn) [Compound 1311, (2R,4R)-1-cyano-N-[2-[(4,4-difluorocyclohexyl)amino]-2-oxo-1-thiazol-5-yl-ethyl]-4-methoxy-N-[4-(pentafluoro-λ^6-sulfanyl)phenyl]pyrrolidine-2-carboxamide] registered an EC50 at 229E Mpro of under 2 µM. The IC50 (with HCov OC43; in experiment [1]) was under 2 µM in each case.

On 229E Mpro, `N#CN1CCOC[C@@H]1C(=O)N(c1ccc(S(F)(F)(F)(F)F)cc1)C(C(=O)NC1CCC(F)(F)CC1)c1cccnc1` (stereo partly drawn) [Compound 1315, (3R)-4-cyano-N-[2-[(4,4-difluorocyclohexyl)amino]-2-oxo-1-(3-pyridyl)ethyl]-N-[4-(pentafluoro-λ6-sulfanyl)phenyl]morpholine-3-carboxamide] returned an EC50 of under 2 µM. Besides, the half-inhibitory concentration (IC50) (in the experiment on HCov OC43; in experiment [1]) was under 2 µM each time.

In turn, `CO[C@@H]1C[C@H](C(=O)N(c2ccc(S(F)(F)(F)(F)F)cc2)C(C(=O)NC2CCC(F)(F)CC2)c2ccnnc2)N(C#N)C1` (stereo partly drawn) [Compound 1320, (2R,4R)-1-cyano-N-[2-[(4,4-difluorocyclohexyl)amino]-2-oxo-1-pyridazin-4-yl-ethyl]-4-methoxy-N-[4-(pentafluoro-λ6-sulfanyl)phenyl]pyrrolidine-2-carboxamide] showed an EC50 at 229E Mpro of over 30 µM. Moreover, the IC50 (in the experiment on HCov OC43; in experiment [1]) was over 30 µM throughout.

`C[C@@]1(O)C[C@H](C(=O)N(c2ccc(S(F)(F)(F)(F)F)cc2)C(C(=O)NC2CCOCC2)c2cnccn2)N(C#N)C1` (stereo partly drawn) [Compound 1322, (2R,4R)-1-cyano-4-hydroxy-4-methyl-N-[2-oxo-1-pyrazin-2-yl-2-(tetrahydropyran-4-ylamino)ethyl]-N-[4-(pentafluoro-λ6-sulfanyl)phenyl]pyrrolidine-2-carboxamide] returned an EC50 on 229E Mpro of under 2 µM. The IC50 (with HCov OC43; in experiment [1]) was under 2 µM each time.

Compound `CC(C)(C)c1ccc(N(C(=O)[C@H]2C[C@@](C)(O)CN2C#N)C(C(=O)NC2CCC(F)(F)CC2)c2cnccn2)cc1` (stereo partly drawn) [Compound 1326, (2R,4R)—N-(4-(tert-butyl)phenyl)-1-cyano-N-(2-((4,4-difluorocyclohexyl)amino)-2-oxo-1-(pyrazin-2-yl)ethyl)-4-hydroxy-4-methylpyrrolidine-2-carboxamide] had an EC50 at 229E Mpro of under 2 µM. Further, the IC50 (in the experiment with HCov OC43; in experiment [1]) was under 2 µM throughout.
